Here are results for two compounds from ChEMBL document CHEMBL3045769, “Strategy for generation of new TACE inhibitors: pharmacophore and counter pharmacophore modeling to remove non-selective hits” (Med Chem Res, 2011).

The target of this assay is Disintegrin and metalloproteinase domain-containing protein 17 (Homo sapiens, UniProt P78536). Description: Inhibition of TACE (unknown origin) using fluorogenic LAQAVRSSSR peptide as a substrate by fluorometric assay.
Chain of Disintegrin and metalloproteinase domain-containing protein 17 (P78536 whole entry, the tested form may be a part): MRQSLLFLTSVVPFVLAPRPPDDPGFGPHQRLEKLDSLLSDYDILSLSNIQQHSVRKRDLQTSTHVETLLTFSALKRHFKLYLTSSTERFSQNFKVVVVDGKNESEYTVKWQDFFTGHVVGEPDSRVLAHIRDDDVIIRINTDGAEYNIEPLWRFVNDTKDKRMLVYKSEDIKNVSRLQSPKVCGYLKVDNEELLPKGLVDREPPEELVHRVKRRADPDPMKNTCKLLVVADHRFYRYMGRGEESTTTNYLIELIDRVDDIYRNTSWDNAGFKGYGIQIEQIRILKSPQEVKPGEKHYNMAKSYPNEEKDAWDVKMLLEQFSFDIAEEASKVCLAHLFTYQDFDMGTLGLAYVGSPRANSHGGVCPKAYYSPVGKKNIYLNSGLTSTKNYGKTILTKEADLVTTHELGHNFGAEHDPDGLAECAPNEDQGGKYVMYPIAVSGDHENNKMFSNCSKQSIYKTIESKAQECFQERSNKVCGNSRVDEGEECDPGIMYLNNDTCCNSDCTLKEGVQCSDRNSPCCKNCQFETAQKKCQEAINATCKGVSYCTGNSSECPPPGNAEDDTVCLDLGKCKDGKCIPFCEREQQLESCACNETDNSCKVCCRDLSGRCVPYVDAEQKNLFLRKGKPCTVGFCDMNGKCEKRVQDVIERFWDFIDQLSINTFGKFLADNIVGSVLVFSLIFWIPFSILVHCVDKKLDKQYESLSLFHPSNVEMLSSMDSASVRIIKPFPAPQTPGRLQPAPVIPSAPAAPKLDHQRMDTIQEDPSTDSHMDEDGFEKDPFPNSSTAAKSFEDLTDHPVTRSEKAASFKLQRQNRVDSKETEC

As to `CC#CCOc1ccc(S(=O)(=O)NC(C)C(=O)NO)cc1` (configuration not stated), the IC50 came out at 4 nM. With `CNC(=O)[C@H](Cc1cccc2c1CCCC2)NC(=O)[C@H](CC(C)C)[C@H](C)C(=O)NO`, 0.3 nM corresponded to half-maximal inhibition (IC50).
